In ChEMBL document CHEMBL1157154, “The synthesis of 5-substituted ring E analogs of methyllycaconitine via the Suzuki-Miyaura cross-coupling reaction” (Bioorg Med Chem, 2008):

Key:
[1] = biological target: Neuronal acetylcholine receptor subunit alpha-7 (Bos taurus) (UniProt P54131); assay: Displacement of [125I]alpha-bungarotoxin from bovine alpha7 nAChR expressed in HEK293 cells at 1.0 uM; type: cell-based
[2] = biological target: Neuronal acetylcholine receptor subunit alpha-3 (Bos taurus) (UniProt Q07263); assay: Displacement of [3H]epibatidine from bovine […] nAChR expressed in HEK293 cells at 1.0 uM; type: cell-based
Neuronal acetylcholine receptor subunit alpha-3 (Bos taurus), sequence (Q07263 whole entry): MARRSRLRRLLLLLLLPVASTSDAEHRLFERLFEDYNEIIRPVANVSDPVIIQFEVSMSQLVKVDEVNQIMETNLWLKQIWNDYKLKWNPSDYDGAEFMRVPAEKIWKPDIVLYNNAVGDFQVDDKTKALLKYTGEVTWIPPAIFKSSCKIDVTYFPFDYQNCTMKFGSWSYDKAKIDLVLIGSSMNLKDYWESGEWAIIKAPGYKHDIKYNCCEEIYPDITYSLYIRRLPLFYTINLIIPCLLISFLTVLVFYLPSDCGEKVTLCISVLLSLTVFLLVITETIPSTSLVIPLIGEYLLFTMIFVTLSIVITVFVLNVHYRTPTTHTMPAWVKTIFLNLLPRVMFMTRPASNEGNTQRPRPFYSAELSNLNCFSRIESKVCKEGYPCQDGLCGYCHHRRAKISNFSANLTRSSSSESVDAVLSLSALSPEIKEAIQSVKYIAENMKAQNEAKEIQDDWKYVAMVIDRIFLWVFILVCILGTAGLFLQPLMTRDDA

[3] = Inhibition of nicotin-stimulated neurosecretion in bovine adrenal gland; type: functional, tissue-based, Bos taurus, Adrenal tissue
[4] = biological target: Neuronal acetylcholine receptor subunit alpha-3 (Bos taurus) (UniProt Q07263); assay: Displacement of [3H]epibatidine from bovine […] nAChR expressed in HEK293 cells at 10 uM; type: cell-based
[5] = biological target: Neuronal acetylcholine receptor subunit alpha-7 (Bos taurus) (UniProt P54131); assay: Displacement of [125I]alpha-bungarotoxin from bovine alpha7 nAChR expressed in HEK293 cells at 10 uM; type: cell-based
[6] = biological target: Neuronal acetylcholine receptor subunit alpha-7 (Bos taurus, UniProt P54131); assay: Displacement of [125I]alpha-bungarotoxin from bovine alpha7 nAChR expressed in HEK293 cells; type: cell-based
Neuronal acetylcholine receptor subunit alpha-7, sequence (P54131 whole entry): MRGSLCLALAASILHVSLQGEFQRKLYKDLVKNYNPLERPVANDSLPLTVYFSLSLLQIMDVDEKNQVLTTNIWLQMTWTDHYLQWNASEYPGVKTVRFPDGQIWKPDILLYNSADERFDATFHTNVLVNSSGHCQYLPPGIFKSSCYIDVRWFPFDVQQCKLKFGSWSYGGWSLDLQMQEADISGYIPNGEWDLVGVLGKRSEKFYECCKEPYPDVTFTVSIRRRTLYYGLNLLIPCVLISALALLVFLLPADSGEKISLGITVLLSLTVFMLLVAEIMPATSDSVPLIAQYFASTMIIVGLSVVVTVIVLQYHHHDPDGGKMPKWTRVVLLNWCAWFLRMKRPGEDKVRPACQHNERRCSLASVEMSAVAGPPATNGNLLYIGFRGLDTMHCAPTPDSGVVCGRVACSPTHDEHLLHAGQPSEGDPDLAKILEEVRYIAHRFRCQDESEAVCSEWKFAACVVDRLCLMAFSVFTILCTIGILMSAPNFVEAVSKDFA

Neuronal acetylcholine receptor subunit alpha-7 (Bos taurus), sequence (P54131 whole entry): as above

Row | SMILES | Activity [4] [%] | Activity [5] [%] | also measured
1 | CCN1C[C@]2(COC(=O)c3ccccc3N3C(=O)C[C@H](C)C3=O)CC[C@H](OC)[C@@]34[C@@H]5C[C@H]6[C@H](OC)[C@@H]5[C@](O)(C[C@@H]6OC)[C@](O)([C@@H](OC)[C@H]23)[C@@H]14 | – | – | Activity [1]: 7.5%; Activity [2]: 50.1%
2 | CCCCCC[C@H]1C[C@@H](COC(=O)c2ccccc2N2C(=O)CC(C)C2=O)CN(CCCc2ccccc2)C1 (stereo not given in full) | 105 | 92.2 | IC50 [3]: 2 µM
3 | CC1CC(=O)N(c2ccccc2C(=O)OC[C@@H]2C[C@H](CCc3ccccc3)CN(CCCc3ccccc3)C2)C1=O (stereo not given in full) | 103 | 98.8 | –
4 | CC1CC(=O)N(c2ccccc2C(=O)OC[C@@H]2C[C@H](C3CCCCC3)CN(CCCc3ccccc3)C2)C1=O (stereo not given in full) | – | 103 | –
5 | CC1CC(=O)N(c2ccccc2C(=O)OC[C@@H]2C[C@H](CC3CCCCC3)CN(CCCc3ccccc3)C2)C1=O (stereo not given in full) | – | 92.6 | –
6 | CC1CC(=O)N(c2ccccc2C(=O)OC[C@@H]2C[C@H](CCCCCO[Si](C)(C)C(C)(C)C)CN(CCCc3ccccc3)C2)C1=O (stereo not given in full) | 118 | 88.8 | IC50 [3]: 2 µM
7 | CC1CC(=O)N(c2ccccc2C(=O)OC[C@@H]2CCCN(CCCc3ccccc3)C2)C1=O (stereo not given in full) | – | – | IC50 [6]: 177 µM
8 | CC1CC(=O)N(c2ccccc2C(=O)OC[C@@H]2C[C@H](c3ccccc3)CN(CCCc3ccccc3)C2)C1=O (stereo not given in full) | 86.8 | 94.3 | –
